Laboratory results published in PubChem BioAssay AID264 (DTP/NCI, 2004).
Where “and” joins values, the source holds several entries; their conditions need not be identical. Equal entries are not always repeated. Records with an inconclusive call do not appear.

System: nude mice, LX-1 lung xenograft intrarenal, tumor weight T/C
Test: NCI In Vivo Anticancer Drug Screen. Data for tumor model Human Lung LX-1 Xenograft (intrarenal inoculation) in NU/NU Swiss (nude) mice
Conditions: endpoint: mean tumor weight change, higher = larger tumour
Procedure, shortened: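 Tumor-bearing mice receive test compound or vehicle; tumor size is then measured in each group. The treated value is divided by the vehicle value to give T/C.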

[1] = dose: 75.0 mg/kg/injection, schedule: Q04DX003 (sc), vehicle: saline with Tween-80
[2] = dose: 150.0 mg/kg/injection, schedule: Q04DX003 (sc), vehicle: saline with Tween-80
[3] = dose: 600.0 mg/kg/injection, schedule: Q04DX003 (sc), vehicle: saline with Tween-80
[4] = dose: 12.5 mg/kg/injection, schedule: Q04DX003 (sc), vehicle: saline
[5] = dose: 25.0 mg/kg/injection, schedule: Q04DX003 (sc), vehicle: saline
[6] = dose: 50.0 mg/kg/injection, schedule: Q04DX003 (sc), vehicle: saline

Cc1nc(N)nc(N)c1-c1ccc(Cl)c(Cl)c1
T/C (dose: 0.16 mg/kg/injection, schedule: Q01DX010 (sc), vehicle: saline): 85 % of control
T/C (dose: 0.32 mg/kg/injection, schedule: Q01DX010 (sc), vehicle: saline): 111 % of control
T/C (dose: 0.63 mg/kg/injection, schedule: Q01DX010 (sc), vehicle: saline): 115 % of control
T/C (dose: 1.25 mg/kg/injection, schedule: Q01DX010 (sc), vehicle: saline): 106 % of control

C=C/C(C)=C/[C@H](C)C(=O)C[C@H](O)CC1CC(=O)NC(=O)C1
T/C [1]: 111 % of control
T/C [2]: 61 % of control
T/C (dose: 300.0 mg/kg/injection, schedule: Q04DX003 (sc), vehicle: saline with Tween-80): 69 % of control
T/C [3]: 70 % of control

COc1cc2c(c(OC)c1OC)-c1ccc(OC)c(=O)cc1[C@@H](NC(=O)CCl)CC2
T/C (dose: 1.25 mg/kg/injection, schedule: Q04DX003 (sc), vehicle: saline with Tween-80): 76 % of control
T/C (dose: 2.5 mg/kg/injection, schedule: Q04DX003 (sc), vehicle: saline with Tween-80): 77 % of control
T/C (dose: 5.0 mg/kg/injection, schedule: Q04DX003 (sc), vehicle: saline with Tween-80): 42 % of control

Cc1c2ccc3ccccc3c2c[n+]2ccccc12
T/C (dose: 4.69 mg/kg/injection, schedule: Q04DX003 (sc), vehicle: Klucel (hydroxypropylcellulose) (HPC)): 110 % of control
T/C (dose: 9.38 mg/kg/injection, schedule: Q04DX003 (sc), vehicle: Klucel (hydroxypropylcellulose) (HPC)): 87 % of control
T/C (dose: 18.75 mg/kg/injection, schedule: Q04DX003 (sc), vehicle: Klucel (hydroxypropylcellulose) (HPC)): 72 % of control

ClCC[Se](Cl)(Cl)c1ccccc1
T/C [4]: 92 % of control
T/C [5]: 70 % of control
T/C [6]: 46 % of control

CNC=O
T/C (dose: 100.0 mg/kg/injection, schedule: Q01DX010 (sc), vehicle: saline): 35 % of control
T/C (dose: 200.0 mg/kg/injection, schedule: Q01DX010 (sc), vehicle: saline): 7 % of control and 15 % of control and 21 % of control
T/C (dose: 400.0 mg/kg/injection, schedule: Q01DX010 (sc), vehicle: saline): 1 % of control and 2 % of control and 24 % of control
T/C (dose: 1600.0 mg/kg/injection, schedule: Q01DX010 (sc), vehicle: saline): 1 % of control

NC(=O)c1ncn2c(=O)n(CCCl)nnc12
T/C [4]: 56 % of control and 64 % of control
T/C (dose: 12.5 mg/kg/injection, schedule: Q04DX003 (sc), vehicle: suspension in saline): 80 % of control
T/C [5]: 23 % of control and 40 % of control
T/C (dose: 25.0 mg/kg/injection, schedule: Q04DX003 (sc), vehicle: suspension in saline): 49 % of control
T/C [6]: 3 % of control and 19 % of control
T/C (dose: 50.0 mg/kg/injection, schedule: Q04DX003 (sc), vehicle: suspension in saline): 18 % of control
T/C (dose: 100.0 mg/kg/injection, schedule: Q04DX003 (sc), vehicle: saline): 7 % of control

OCCOCCN1CCN(CCCN2c3ccccc3Sc3ccc(C(F)(F)F)cc32)CC1
T/C (dose: 3.0 mg/kg/injection, schedule: Q01DX010 (sc), vehicle: saline): 81 % of control
T/C (dose: 12.0 mg/kg/injection, schedule: Q01DX010 (sc), vehicle: saline): 92 % of control and 111 % of control
T/C (dose: 24.0 mg/kg/injection, schedule: Q01DX010 (sc), vehicle: saline): 52 % of control

COc1ccc(S(=O)(=O)N=N/C=C2\C=CC=CN2O)cc1OC
T/C [1]: 111 % of control
T/C [2]: 124 % of control
T/C [3]: 11 % of control

N#C[Se-].c1ccc([Te+](c2ccccc2)c2ccccc2)cc1
T/C (dose: 6.25 mg/kg/injection, schedule: Q04DX003 (sc), vehicle: Klucel (hydroxypropylcellulose) (HPC)): 75 % of control
T/C (dose: 25.0 mg/kg/injection, schedule: Q04DX003 (sc), vehicle: Klucel (hydroxypropylcellulose) (HPC)): 82 % of control

Cc1ccc(NCCN(C)C)c2c(=O)c3cc(O)ccc3sc12
T/C (dose: 75.0 mg/kg/injection, schedule: Q04DX003 (sc), vehicle: Klucel (hydroxypropylcellulose) (HPC)): 97 % of control
T/C (dose: 150.0 mg/kg/injection, schedule: Q04DX003 (sc), vehicle: Klucel (hydroxypropylcellulose) (HPC)): 68 % of control
T/C (dose: 300.0 mg/kg/injection, schedule: Q04DX003 (sc), vehicle: Klucel (hydroxypropylcellulose) (HPC)): 72 % of control
T/C (dose: 600.0 mg/kg/injection, schedule: Q04DX003 (sc), vehicle: Klucel (hydroxypropylcellulose) (HPC)): 84 % of control

NC(C/[N+]([O-])=N/O)C(=O)O (stereo unspecified)
T/C (dose: 50.0 mg/kg/injection, schedule: Q01DX010 (sc), vehicle: saline): 47 % of control
